Data reported in paper PMC6664820, “Novel natural and synthetic inhibitors of solute carriers SGLT1 and SGLT2” (Pharmacology Research & Perspectives, 2019).
Counter-ions that a name gives are not always drawn. Like-named read-outs stand apart in the source and are kept apart here.

How the values were obtained:
CHO‐hSGLT1/2 cells = experiment: Cytotoxicity assay (ToxiLight, adenylate kinase leakage into CHO‐SGLT1/2 inhibition assay media); set-up: CYTOTOXICITY / CY[…], mean / CYTOTOXICITY (% of vehicle control) Mean / CYTOTOXICITY, mean / CY[…] (% of vehicle control) Mean: dose or concentration left out as unconfirmed;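 also: bioluminescent read-out of adenylate kinase released from lysed cells into the medium, given relative to DMSO vehicle control defined as 0%, higher meaning more cytolysis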
Experimental: The cytotoxicity of representative SGLT1/2 inhibitors and compounds from the different chemical clusters was tested. Cytotoxicity was determined using the ToxiLight bioassay kit according to the supplier's instructions. This nondestructive assay measures leakage of the enzyme adenylate kinase (AK) from damaged cells into the CHO‐SGLT1/2 inhibition assay media, ie the degree of cytolysis. […] Next, bioluminescence was measured using a FlexStation 3 Multi‐Mode Microplate Reader (Molecular Devices) by 1 second integrated reading. Cytotoxicity was expressed as the percentage of bioluminescence of the DMSO vehicle control which was set at 0%. If applicable, statistical outliers were determined using Grubbs’ test (alpha = 0.05) and excluded for calculation of the mean ± SD.

hSGLT2 = target: T1, hSGLT2 (Homo sapiens, UniProt P31639); experiment: SGLT2 inhibition assay for validation of screening hits and similar compounds (1‐NBD‐glucose uptake, CHO‐hSGLT2 cells); type: cell-based; set-up: activity: dose or concentration left out as unconfirmed; conditions: for activity: compound, normalized 1-NBD-glucose uptake, CHO-hSGLT2 cells; for activity / remaining activity at 5 µM / remaining activity at 50 µM: mean; for remaining activity at 5 µM / remaining activity at 50 µM: 0.5 h, concentration not given, read-out: NORMALIZED SGLT2 ACTIVITY (%); for inhibition at 50 µM: mean inhibition with 50 μmol/L inhibitor
T1 sequence (P31639 1-672): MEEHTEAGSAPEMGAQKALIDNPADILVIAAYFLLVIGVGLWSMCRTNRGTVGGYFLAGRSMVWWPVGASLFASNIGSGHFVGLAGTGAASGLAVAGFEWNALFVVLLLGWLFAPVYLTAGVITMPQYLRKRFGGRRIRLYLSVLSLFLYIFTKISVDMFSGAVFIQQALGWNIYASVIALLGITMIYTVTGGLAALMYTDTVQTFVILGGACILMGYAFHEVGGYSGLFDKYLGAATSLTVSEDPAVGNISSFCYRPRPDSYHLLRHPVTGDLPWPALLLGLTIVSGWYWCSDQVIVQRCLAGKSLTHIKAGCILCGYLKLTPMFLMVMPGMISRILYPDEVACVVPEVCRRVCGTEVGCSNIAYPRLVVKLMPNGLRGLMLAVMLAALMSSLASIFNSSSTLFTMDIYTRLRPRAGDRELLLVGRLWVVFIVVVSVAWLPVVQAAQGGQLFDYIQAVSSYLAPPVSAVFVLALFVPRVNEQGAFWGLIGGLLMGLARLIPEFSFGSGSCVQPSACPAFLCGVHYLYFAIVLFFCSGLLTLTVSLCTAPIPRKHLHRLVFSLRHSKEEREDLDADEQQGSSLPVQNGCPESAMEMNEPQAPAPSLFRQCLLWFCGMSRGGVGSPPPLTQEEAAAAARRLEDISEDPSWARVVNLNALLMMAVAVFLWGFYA

SGLT1 = target: T2, SGLT1 (Homo sapiens, UniProt P13866); experiment: SGLT1 inhibition assay for validation of screening hits and similar compounds (1‐NBD‐glucose uptake, CHO‐hSGLT1 cells); type: cell-based; set-up: activity: dose or concentration left out as unconfirmed; conditions: for remaining activity at 5 µM / remaining activity at 50 µM: 0.5 h, concentration not given, read-out: NORMALIZED SGLT1 ACTIVITY (%); for remaining activity at 5 µM / remaining activity at 50 µM / activity: mean; for activity: compound, normalized 1-NBD-glucose uptake, CHO-hSGLT1 cells
T2 sequence (P13866 1-664): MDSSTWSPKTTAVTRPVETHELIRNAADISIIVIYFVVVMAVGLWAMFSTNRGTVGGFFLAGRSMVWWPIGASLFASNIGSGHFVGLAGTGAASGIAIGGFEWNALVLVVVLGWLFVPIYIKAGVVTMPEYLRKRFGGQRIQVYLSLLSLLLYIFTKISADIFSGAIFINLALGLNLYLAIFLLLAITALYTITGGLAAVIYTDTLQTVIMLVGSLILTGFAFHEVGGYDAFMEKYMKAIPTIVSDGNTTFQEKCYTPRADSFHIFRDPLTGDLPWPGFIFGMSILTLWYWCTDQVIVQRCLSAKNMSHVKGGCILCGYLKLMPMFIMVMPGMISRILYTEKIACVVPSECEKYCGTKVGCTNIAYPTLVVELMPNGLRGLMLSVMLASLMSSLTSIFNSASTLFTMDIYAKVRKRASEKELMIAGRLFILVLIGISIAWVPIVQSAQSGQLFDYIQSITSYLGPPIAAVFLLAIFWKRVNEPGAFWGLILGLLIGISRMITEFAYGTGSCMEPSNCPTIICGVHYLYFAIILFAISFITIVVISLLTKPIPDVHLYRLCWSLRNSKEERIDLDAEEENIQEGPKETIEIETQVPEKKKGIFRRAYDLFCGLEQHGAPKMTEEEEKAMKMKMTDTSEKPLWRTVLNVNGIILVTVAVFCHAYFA

[1] = ratio of normalized SGLT2 to SGLT1 activity at 5 uM

SMILES | activity (hSGLT2) [%] | SGLT2/SGLT1 ACTIVITY RATIO 5 uM Mean (hSGLT2; [1]) | remaining activity at 5 µM (SGLT1) [%] | remaining activity at 50 µM (SGLT1) [%] | remaining activity at 5 µM (hSGLT2) [%] | remaining activity at 50 µM (hSGLT2) [%] | other results
CN(C)CCN(Cc1cccs1)c1ccccn1 [Methapyrilene HCl] |  |  |  |  |  |  | CY[…] 50 mM (CHO‐hSGLT1/2 cells; mean, at 50 mM (so in the source)): -16
CC(C)COCC(CN(Cc1ccccc1)c1ccccc1)N1CCCC1 (stereo not shown) [Bepridil HCl] | 65 | 1.1 |  |  |  |  | CY[…] (% of vehicle control) Mean (CHO‐hSGLT1/2 cells; mean): 3.67 % of vehicle control
CC=C(C)C(=O)O[C@H]1c2c(ccc3ccc(=O)oc23)OC(C)(C)[C@H]1OC(=O)C(C)=CC [Praeruptorin B - JR MediChem] |  | 0.9 |  |  |  |  | CYTOTOXICITY (% of vehicle control) Mean (CHO‐hSGLT1/2 cells; mean): -19 % of vehicle control
CCCCN1CCCCC1C(=O)Nc1c(C)cc(C)cc1C (stereo not shown) |  |  | 80 | 44 | 73 | 50 | 
Cn1c(CO[C@H]2CN(Cc3ccncc3F)C[C@H]2F)nc2ccccc21 |  |  | 115 | 115 | 99 | 99 | 
OC(CCN1CCCCC1)(c1ccccc1)C1CCCCC1 (racemic) [(±)-Trihexyphenidyl HCl] |  |  |  |  |  |  | CY[…] (% of vehicle control) Mean (CHO‐hSGLT1/2 cells; mean): -12 % of vehicle control; SGLT2/SGLT1 ACTIVITY RATIO 5 uM Mean (hSGLT2): 1.0; SGLT2/SGLT1 ACTIVITY RATIO 50 mM Mean (hSGLT2): 1.3
CN1CCN2c3ncccc3Cc3ccccc3C2C1 (stereo not shown) [Mirtazapine] |  |  | 114 | 105 | 113 | 108 | 
O=C(/C=C/c1ccc(O[C@@H]2O[C@H](CO)[C@@H](O)[C@H](O)[C@H]2O)cc1)c1ccc(O)cc1O [Isoliquiritin] | 98 | 1.0 |  |  |  |  | SGLT2/SGLT1‐50μmol/L (ratio of SGLT2 to SGLT1 activities with 50 μmol/L inhibitor) (SGLT1): 1.4; activity (SGLT1): 96%; inhibition at 50 µM (SGLT1; mean inhibition with 50 μmol/L inhibitor, read-out: SGLT1 inhibition): 46%; inhibition at 50 µM (hSGLT2): 24%
CN1CCc2cc3c(cc2C2OC(O)c4c(ccc5c4OCO5)C21)OCO3 (stereo not shown) [(Iso)rheagenine] | 97 | 0.857 |  |  |  |  | activity (SGLT1): 114%
CN1CCC(N2CC[C@H](c3nc4ccccc4o3)C2)CC1 |  |  | 117 | 114 | 102 | 106 | 
c1ccc(C23CCN(CC2)CC3)cc1 [4-Phenylquinuclidine] |  |  | 96 | 72 | 81 | 60 | 
Oc1ccc([C@H]2c3c(O)cc4c5c3[C@@H]([C@H](c3ccc(O)cc3)c3c(O)cc(O)cc3[C@H]5[C@@H](c3ccc(O)cc3)O4)[C@@H]2c2cc(O)cc(O)c2)cc1 [Viniferol D] |  |  | 100 | 102 | 97 | 65 | SGLT2/SGLT1‐50μmol/L (ratio of SGLT2 to SGLT1 activities with 50 μmol/L inhibitor) (SGLT1): 0.6; SGLT1 inhibition (SGLT1; mean inhibition with 50 μmol/L inhibitor): no effect on SGLT1; inhibition at 50 µM (hSGLT2): 35%
CCN(CC)CC(=O)Nc1c(C)cccc1C [Lidocaine] |  |  | 90 | 82 | 90 | 77 | 
O=C1C[C@@H](c2ccc(O[C@@H]3O[C@H](CO)[C@@H](O)[C@H](O)[C@H]3O)cc2)Oc2cc(O)ccc21 [Liquiritin] | 101 | 1.0 |  |  |  |  | CYTOTOXICITY (% of vehicle control) Mean (CHO‐hSGLT1/2 cells; mean): -10 % of vehicle control
CN[C@H]1CC[C@@H](c2ccc(Cl)c(Cl)c2)c2ccccc21 [Sertraline HCl] |  |  |  |  |  |  | CY[…], mean (CHO‐hSGLT1/2 cells; ToxiLight, adenylate kinase leakage): -21
COc1cc2oc(=O)ccc2cc1C[C@@H](O)C(C)(C)O [Peucedanol] | 95 |  |  |  |  |  | activity (SGLT1): 100%
